Consider 29 molecules from BindingDB's records for doi:10.1016/S0960-894X(01)80879-9 (1993).

Experiment [1] in a line: Binding affinity for dopamine receptor D2 in guinea pig striatal membrane using radiolabeled ligand [3H]spiperone.
For experiment [2], the target named is Sigma-1 receptor (Cavia porcellus). Description: Binding affinity for sigma receptor in guinea pig brain membrane using radiolabeled ligand [3H]-(+)-SKF- 10,047 was determined.

Structures can show the parent of a compound that is named as a salt. Bounds are passed on as bounds.

As a reminder, the Ki is a dissociation constant, usually derived from enzyme kinetics or from competition with a known ligand. On to `CN1CCC2(CC1)OC(C)(c1ccccc1)CC2=O` (configuration not stated) [2,8-Dimethyl-2-phenyl-1-oxa-8-aza-spiro[4.5]decan-4-one; compound with (E)-but-2-enedioic acid], for which the Ki in experiment [1] was determined as 10000 nM; in experiment [2], 214 nM. Regarding `CCN(CC)CCC1(C)OC=C(c2ccccc2)C1=O` (configuration not stated) [2-(2-Diethylamino-ethyl)-2-methyl-4-phenyl-furan-3-one; hydrochloride], the values for the Ki in experiment [1] and in experiment [2] were 10000 nM and 9 nM, respectively. For `CCN(CC)CCC1(C)OC(c2ccccc2)=CC1=O` (configuration not stated) [2-(2-Diethylamino-ethyl)-2-methyl-5-phenyl-furan-3-one; hydrochloride] the same measures were above 10000 nM and 44 nM. The like results for `CN(C)CCC1(c2ccccc2)OC=C(c2ccccc2)C1=O` (configuration not stated) [2-(2-Dimethylamino-ethyl)-2,4-diphenyl-furan-3-one; hydrochloride] were, in that order, 2690 nM and 223 nM. For `CCN(CC)CCCC1(C)OC=C(c2ccccc2)C1=O` (configuration not stated) [2-(3-Diethylamino-propyl)-2-methyl-4-phenyl-furan-3-one; hydrochloride], the values for the inhibitory constant (Ki) in experiment [1] and in experiment [2] were above 10000 nM and 16 nM, respectively.

`O=C1C=C(c2ccc(F)cc2)OC12CCN(CCc1ccccc1)CC2` [2-(4-Fluoro-phenyl)-8-phenethyl-1-oxa-8-aza-spiro[4.5]dec-2-en-4-one; hydrochloride]: the results for the Ki in experiment [1] and in experiment [2] were 5320 nM and 6 nM, respectively. With `O=C1C=C(c2ccccc2)OC12CCNCC2` [2-Phenyl-1-oxa-8-aza-spiro[4.5]dec-2-en-4-one; hydrochloride], the values for the Ki in experiment [1] and in experiment [2] were above 10000 nM and 462 nM, respectively. For `CN1CCC2(CC1)OC=C(c1ccc(F)cc1)C2=O` [3-(4-Fluoro-phenyl)-8-methyl-1-oxa-8-aza-spiro[4.5]dec-2-en-4-one; hydrochloride] the same measures were 2600 nM and 4000 nM. The like results for `O=C1C(c2ccc(F)cc2)=COC12CCN(CCc1ccccc1)CC2` [3-(4-Fluoro-phenyl)-8-phenethyl-1-oxa-8-aza-spiro[4.5]dec-2-en-4-one; hydrochloride] were, in that order, 217 nM and 24 nM. The like results for `COc1ccc(C2=COC3(CCN(CCc4ccccc4)CC3)C2=O)cc1` [3-(4-Methoxy-phenyl)-8-phenethyl-1-oxa-8-aza-spiro[4.5]dec-2-en-4-one; hydrochloride] were, in that order, 2070 nM and 30 nM. Take `O=C1C(c2ccc3ccccc3c2)=COC12CCN(CCc1ccccc1)CC2` [3-Naphthalen-2-yl-8-phenethyl-1-oxa-8-aza-spiro[4.5]dec-2-en-4-one; hydrochloride]: the values for the Ki in experiment [1] and in experiment [2] were 3130 nM and 35 nM, respectively. `O=C1C(c2ccccc2)=COC12CCNCC2` [3-Phenyl-1-oxa-8-aza-spiro[4.5]dec-2-en-4-one; hydrochloride]: the Ki in experiment [1] worked out at 10000 nM; in experiment [2], 6220 nM. With `O=C1C=C(c2ccccc2)OC12CCCN(Cc1ccccc1)C2` (configuration not stated) [7-Benzyl-2-phenyl-1-oxa-7-aza-spiro[4.5]dec-2-en-4-one; hydrochloride], the Ki in experiment [1] is above 10000 nM; in experiment [2], 4520 nM. Consider `O=C1C(c2ccccc2)=COC12CCN(Cc1ccccc1)C2` (configuration not stated) [7-Benzyl-3-phenyl-1-oxa-7-aza-spiro[4.4]non-2-en-4-one; hydrochloride], for which the Ki in experiment [1] was found to be 20000 nM; in experiment [2], 32 nM.

In the case of `O=C1C(c2ccccc2)=COC12CCCN(Cc1ccccc1)C2` (configuration not stated) [7-Benzyl-3-phenyl-1-oxa-7-aza-spiro[4.5]dec-2-en-4-one; hydrochloride], the Ki in experiment [1] is above 10000 nM; in experiment [2], 695 nM. The like results for `O=C(CCCN1CCCC2(C1)OC(c1ccccc1)=CC2=O)c1ccc(F)cc1` (configuration not stated) [7-[4-(4-Fluoro-phenyl)-4-oxo-butyl]-2-phenyl-1-oxa-7-aza-spiro[4.5]dec-2-en-4-one; hydrochloride] were, in that order, 152 nM and 384 nM. On to `O=C1C(c2ccccc2)=COC12CCN(Cc1cccc(Cl)c1)CC2` [8-(3-Chloro-benzyl)-3-phenyl-1-oxa-8-aza-spiro[4.5]dec-2-en-4-one; hydrochloride], for which the Ki is 2110 nM in experiment [1] and 232 nM in experiment [2]. Consider `Cc1cc(CN2CCC3(CC2)OC=C(c2ccccc2)C3=O)on1` [8-(3-Methyl-isoxazol-5-ylmethyl)-3-phenyl-1-oxa-8-aza-spiro[4.5]dec-2-en-4-one; hydrochloride], for which the results for the inhibitory constant (Ki) in experiment [1] and in experiment [2] were 32000 nM and 7500 nM, respectively. As for `O=C1C(c2ccccc2)=COC12CCN(Cc1ccc(F)cc1)CC2` [8-(4-Fluoro-benzyl)-3-phenyl-1-oxa-8-aza-spiro[4.5]dec-2-en-4-one; hydrochloride], the results for the Ki in experiment [1] and in experiment [2] were 2420 nM and 3 nM, respectively. With `C=CCN1CCC2(CC1)OC=C(c1ccccc1)C2=O` [8-Allyl-3-phenyl-1-oxa-8-aza-spiro[4.5]dec-2-en-4-one; hydrochloride], the inhibition constant (Ki) in experiment [1] was determined as 4870 nM; in experiment [2], 163 nM. Turning to `O=C1C=C(c2ccccc2)OC12CCN(Cc1ccccc1)CC2` [8-Benzyl-2-phenyl-1-oxa-8-aza-spiro[4.5]dec-2-en-4-one; hydrochloride], the values for the Ki in experiment [1] and in experiment [2] were above 10000 nM and 1 nM, respectively.

`O=C1C(c2ccc(F)cc2)=COC12CCN(Cc1ccccc1)CC2` [8-Benzyl-3-(4-fluoro-phenyl)-1-oxa-8-aza-spiro[4.5]dec-2-en-4-one; hydrochloride]: affinity in experiment [1] was put at a Ki of 1420 nM.

Regarding `O=C1C(c2ccccc2)=COC12CCN(Cc1ccccc1)CC2` [8-Benzyl-3-phenyl-1-oxa-8-aza-spiro[4.5]dec-2-en-4-one; hydrochloride], the Ki in experiment [1] stood at 2370 nM; in experiment [2] it was 4 nM. As to `O=C1C(c2ccc(F)cc2)=COC12CCN(CC1CCCCC1)CC2` [8-Cyclohexylmethyl-3-(4-fluoro-phenyl)-1-oxa-8-aza-spiro[4.5]dec-2-en-4-one; hydrochloride], the results for the inhibition constant (Ki) in experiment [1] and in experiment [2] were 962 nM and 2 nM, respectively. With `O=C1C(c2ccccc2)=COC12CCN(CC1CCCCC1)CC2` [8-Cyclohexylmethyl-3-phenyl-1-oxa-8-aza-spiro[4.5]dec-2-en-4-one; hydrochloride], the Ki in experiment [1] came to 642 nM; in experiment [2], 1 nM. On to `CN1CCC2(CC1)OC(c1ccccc1)=CC2=O` [8-Methyl-2-phenyl-1-oxa-8-aza-spiro[4.5]dec-2-en-4-one; hydrochloride], for which the Ki came to 2900 nM in experiment [1] and 298 nM in experiment [2].

With `CN1CCC2(CC1)OC=C(c1ccccc1)C2=O` [8-Methyl-3-phenyl-1-oxa-8-aza-spiro[4.5]dec-2-en-4-one; hydrochloride], the Ki was above 10000 nM in experiment [1] and 580 nM in experiment [2]. For `O=C1C=C(c2ccccc2)OC12CCN(CCc1ccccc1)CC2` [8-Phenethyl-2-phenyl-1-oxa-8-aza-spiro[4.5]dec-2-en-4-one; hydrochloride] the same measures were 7180 nM and 1 nM.

In the case of `O=C(CCCN1CCC2(CC1)OC=C(c1ccccc1)C2=O)c1ccc(F)cc1` [8-[4-(4-Fluoro-phenyl)-4-oxo-butyl]-3-phenyl-1-oxa-8-aza-spiro[4.5]dec-2-en-4-one; hydrochloride], the inhibitory constant (Ki) in experiment [1] amounted to 70 nM; in experiment [2], 17 nM.
